This passage reports inhibition and IC50 results from patent US8735406B2, “8-oxodihydropurine derivative” (Dainippon Sumitomo Pharma Co., Ltd., priority 2009, dated 2014).

SMILES strings stand for the structures. Some results are limits rather than exact numbers.

This assay deals with T1, FAAH (Rattus norvegicus, UniProt P97612).
T1 construct: Preparation of Rat Brain Membranes Preparations (FAAH Enzyme Solution); from tissue; host or cells: rat cerebrum (brain membrane preparation)
T1 sequence (P97612 1-579): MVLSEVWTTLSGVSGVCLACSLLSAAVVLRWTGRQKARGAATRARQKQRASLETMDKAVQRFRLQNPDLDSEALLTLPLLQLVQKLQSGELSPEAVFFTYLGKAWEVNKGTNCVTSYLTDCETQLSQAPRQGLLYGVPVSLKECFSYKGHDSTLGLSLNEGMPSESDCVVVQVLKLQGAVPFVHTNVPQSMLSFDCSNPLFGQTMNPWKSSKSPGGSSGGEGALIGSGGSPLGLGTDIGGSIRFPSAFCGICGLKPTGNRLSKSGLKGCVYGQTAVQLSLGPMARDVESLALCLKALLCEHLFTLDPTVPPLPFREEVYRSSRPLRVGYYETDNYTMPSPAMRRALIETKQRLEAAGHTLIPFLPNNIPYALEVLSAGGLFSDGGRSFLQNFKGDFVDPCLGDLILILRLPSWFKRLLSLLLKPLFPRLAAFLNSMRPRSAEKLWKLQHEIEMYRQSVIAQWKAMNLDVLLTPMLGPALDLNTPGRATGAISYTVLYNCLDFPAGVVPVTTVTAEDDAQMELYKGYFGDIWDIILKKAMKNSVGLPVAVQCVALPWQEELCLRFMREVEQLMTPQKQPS
Description: Determination of FAAH inhibitory activity in rat (rat brain membrane preparations, [3H]-anandamide hydrolysis). It is filed as biochemical. The settings on record: rat brain membrane preparations; for inhibition at 0.1 µM: 100 nM test substance, read-out: FAAH Inhibition, Inhibition Rate at 100 nM; for IC50: test substance 0.1 nM to 1 μM, read-out: FAAH Inhibition IC50. In a few lines:
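Rat cerebrum membranes (100 μg/mL protein) preincubated 10 min at 37 °C with compound (1% DMSO) in pH 7.6 Tris buffer with 1.5% BSA. Substrate 2 nM [3H]-anandamide plus 2 μM anandamide added for 10 min at 37 °C. [3H]-ethanolamine in the aqueous phase after chloroform/methanol extraction was scintillation counted; IC50 over 0.1 nM–1 μM.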

For `Cn1c(=O)n(C(=O)N2CCCC2)c2cnc(Cc3cccc(-c4ccccc4)c3)nc21` [compound 272], the inhibition (commonly the drop in the measured response relative to a control, in per cent) at 0.1 µM was 35% and the IC50 (usually the concentration that inhibits the measured activity by half) was over 100 nM.

Turning to `CCN(C)C(=O)n1c(=O)n(C)c2nc(Cc3ccc(C(F)(F)F)cc3)ncc21` [compound 283], the inhibition at 0.1 µM came out at 59% and the IC50 was 74 nM.

Consider `Cn1c(=O)n(C(=O)N2CCCC2)c2nc(Cc3ccccc3)ncc21` [compound 285], for which the inhibition at 0.1 µM was 66% and the IC50 was 77 nM.

For the molecule `COc1ccccc1Cc1ncc2c(n1)n(C(=O)N1CCCC1)c(=O)n2C` [compound 291], the inhibition at 0.1 µM was 58% and the half-maximal inhibitory concentration (IC50) came out at 75 nM.

Take `CN(C)C(=O)n1c(=O)n(C)c2cnc(-c3ccc(OC(F)(F)F)cc3)nc21` [compound 318]: the inhibition at 0.1 µM stood at 90% and the IC50 was determined as 27 nM.

Regarding `CN(C)C(=O)n1c(=O)n(C)c2cnc(-c3cccc(OC(F)(F)F)c3)nc21` [compound 319], the inhibition at 0.1 µM amounted to 95% and the IC50 came to 18 nM.

For `CCOc1ccc(-c2ncc3c(n2)n(C(=O)N(C)C)c(=O)n3C)cc1` [compound 320], the inhibition at 0.1 µM came to 45% and the IC50 is 113 nM.

Take `CCOc1cccc(-c2ncc3c(n2)n(C(=O)N(C)C)c(=O)n3C)c1` [compound 321]: the inhibition at 0.1 µM stood at 54%.

With `CN(C)C(=O)n1c(=O)n(C)c2cnc(-c3cccc(F)c3)nc21` [compound 323], the inhibition at 0.1 µM turned out to be 57% and the IC50 amounted to 77 nM.

For `Cc1cccc(-c2ncc3c(n2)n(C(=O)N(C)C)c(=O)n3C)c1` [compound 324], the inhibition at 0.1 µM was found to be 55% and the IC50 was found to be 82 nM.

For the molecule `CN(C)C(=O)n1c(=O)n(C)c2cnc(-c3cccc(C(F)(F)F)c3)nc21` [compound 325], the inhibition at 0.1 µM was found to be 101% and the IC50 was determined as 11 nM.

On to `CN(C)C(=O)n1c(=O)n(C)c2cnc(-c3cccc(OCc4ccccc4)c3)nc21` [compound 327], for which the inhibition at 0.1 µM was 23% and the half-maximal inhibitory concentration (IC50) came out at 109 nM.

As for `CN(C)C(=O)n1c(=O)n(C)c2cnc(-c3cccc(Cl)c3)nc21` [compound 328], the inhibition at 0.1 µM amounted to 118% and the IC50 worked out at 5 nM.

For `CN(C)C(=O)n1c(=O)n(C)c2cnc(-c3ccc(Cl)cc3)nc21` [compound 329], the inhibition at 0.1 µM came out at 95% and the IC50 was determined as 12 nM.

`CCN(C)C(=O)n1c(=O)n(C)c2cnc(-c3cccc(C)c3)nc21` [compound 340]: the inhibition at 0.1 µM was determined as 71% and the half-maximal inhibitory concentration (IC50) is 50 nM.

Regarding `CCN(C)C(=O)n1c(=O)n(C)c2cnc(-c3cccc(OC(F)(F)F)c3)nc21` [compound 341], the inhibition at 0.1 µM stood at 102% and the IC50 was under 1 nM.

Consider `CCN(C)C(=O)n1c(=O)n(C)c2cnc(-c3cccc(Cl)c3)nc21` [compound 342], for which the inhibition at 0.1 µM is 76% and the IC50 stood at 52 nM.

On to `CCN(C)C(=O)n1c(=O)n(C)c2cnc(-c3cccc(OC(F)F)c3)nc21` [compound 343], for which the inhibition at 0.1 µM came out at 95% and the IC50 stood at 14 nM.

As to `CCN(C)C(=O)n1c(=O)n(C)c2cnc(-c3cccc(C(F)F)c3)nc21` [compound 344], the inhibition at 0.1 µM amounted to 93% and the IC50 was 13 nM.

As for `CCN(C)C(=O)n1c(=O)n(C)c2cnc(-c3ccc(OC(F)F)cc3)nc21` [compound 345], the inhibition at 0.1 µM is 101% and the IC50 was 9 nM.

For the molecule `CCOc1cccc(-c2ncc3c(n2)n(C(=O)N2CCC2)c(=O)n3C)c1` [compound 346], the inhibition at 0.1 µM came out at 99% and the concentration for half-maximal inhibition (IC50) was determined as 21 nM.

Take `CCOc1ccc(-c2ncc3c(n2)n(C(=O)N2CCC2)c(=O)n3C)cc1` [compound 347]: the inhibition at 0.1 µM came to 72% and the IC50 is 61 nM.

With `CCCCOc1cccc(-c2ncc3c(n2)n(C(=O)N2CCC2)c(=O)n3C)c1` [compound 348], the inhibition at 0.1 µM turned out to be 90% and the IC50 turned out to be 28 nM.
